From patent US20050282743A1, “Molecular interactions in cells” (Arbor Vita Corporation, priority 2001, published 2005) come the findings set out here.

Holding throughout (type): binding
For experiment [1], the target named is T1, PDZ protein (GST-PDZ fusion) (Homo sapiens, UniProt O15018).
T1 construct: made in house; host or cells: E. coli (DH5alpha, BL21 or JM109)
Briefly: G' assay (10 uM PL peptide), results of TABLE 7 and TABLE 12. Conditions: PDZ AIPC, PDZ Domain 1; PL peptide 10 uM; Protein Optimal Conc 5. A digest of the protocol:
(§1)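 Biotin-PL peptide (N-term label), 10 uM vs GST-PDZ; protein 5 ug/ml by default. A450 nm binned: 1 = 0-1, 2 = 1-2, 3 = 2-3, 4 = 3-4, 5 = >4 on >2 repeats, 0 = no binding.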

Experiment [2] concerns the target T2, PDZ protein (GST-PDZ fusion) (Homo sapiens, UniProt Q02410).
T2 construct: made in house; host or cells: E. coli (DH5alpha, BL21 or JM109)
T2 sequence (Q02410 1-837): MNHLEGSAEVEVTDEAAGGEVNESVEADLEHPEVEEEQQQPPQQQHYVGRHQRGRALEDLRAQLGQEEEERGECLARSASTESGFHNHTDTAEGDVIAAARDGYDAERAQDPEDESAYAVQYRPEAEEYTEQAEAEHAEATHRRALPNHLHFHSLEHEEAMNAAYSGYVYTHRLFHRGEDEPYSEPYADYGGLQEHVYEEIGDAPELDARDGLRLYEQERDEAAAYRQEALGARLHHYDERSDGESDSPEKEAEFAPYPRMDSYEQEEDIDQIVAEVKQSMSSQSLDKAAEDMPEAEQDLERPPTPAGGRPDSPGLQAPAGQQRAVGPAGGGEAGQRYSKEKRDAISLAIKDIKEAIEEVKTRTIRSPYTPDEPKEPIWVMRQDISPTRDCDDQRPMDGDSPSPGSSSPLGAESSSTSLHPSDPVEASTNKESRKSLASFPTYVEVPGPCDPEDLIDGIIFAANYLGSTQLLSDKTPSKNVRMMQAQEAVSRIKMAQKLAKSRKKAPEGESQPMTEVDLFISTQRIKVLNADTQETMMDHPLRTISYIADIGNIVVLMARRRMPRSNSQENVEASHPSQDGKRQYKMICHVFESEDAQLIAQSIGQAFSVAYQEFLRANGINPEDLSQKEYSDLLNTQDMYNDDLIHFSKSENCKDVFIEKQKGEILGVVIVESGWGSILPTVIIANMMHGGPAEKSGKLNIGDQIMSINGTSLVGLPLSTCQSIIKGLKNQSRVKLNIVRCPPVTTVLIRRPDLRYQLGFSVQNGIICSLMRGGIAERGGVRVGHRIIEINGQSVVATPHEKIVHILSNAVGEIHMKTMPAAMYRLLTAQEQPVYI
Described as above. Summed up: as §1

Experiment [3] concerns the target T3, PDZ protein (GST-PDZ fusion) (Homo sapiens, UniProt Q15700).
T3 construct: made in house; host or cells: E. coli (DH5alpha, BL21 or JM109)
Described as above. Summed up: as §1

Experiment [4] addresses PDZ-domain polypeptide (GST/PDZ fusion protein). Briefly: Apparent affinity (Kd) by titration of PL peptide in the G assay. Conditions: PDZ FLJ 00011, PDZ Domain 1; read-out: Peptide Optimal Conc (Kd by titration of the PL peptide). A digest of the protocol: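 A fixed concentration of GST/PDZ fusion protein, 5 ug/ml by default, was mixed in solution with increasing labeled PL peptide (e.g. 0.1 uM-1 mM). Reaction times ranged from 10 minutes to 2 days at 4-37° C. Complexes were separated from free peptide and detected via the label as in the G assay, apparent affinity coming from the saturating concentration.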

Peptide text beside a SMILES is read from it. * marks the point of attachment. Biotin = O=C1N[C@H]2[C@H](CS[C@H]2CCCCC(=O)*)N1

T3 sequence (Q15700 whole entry, the tested form may be a part): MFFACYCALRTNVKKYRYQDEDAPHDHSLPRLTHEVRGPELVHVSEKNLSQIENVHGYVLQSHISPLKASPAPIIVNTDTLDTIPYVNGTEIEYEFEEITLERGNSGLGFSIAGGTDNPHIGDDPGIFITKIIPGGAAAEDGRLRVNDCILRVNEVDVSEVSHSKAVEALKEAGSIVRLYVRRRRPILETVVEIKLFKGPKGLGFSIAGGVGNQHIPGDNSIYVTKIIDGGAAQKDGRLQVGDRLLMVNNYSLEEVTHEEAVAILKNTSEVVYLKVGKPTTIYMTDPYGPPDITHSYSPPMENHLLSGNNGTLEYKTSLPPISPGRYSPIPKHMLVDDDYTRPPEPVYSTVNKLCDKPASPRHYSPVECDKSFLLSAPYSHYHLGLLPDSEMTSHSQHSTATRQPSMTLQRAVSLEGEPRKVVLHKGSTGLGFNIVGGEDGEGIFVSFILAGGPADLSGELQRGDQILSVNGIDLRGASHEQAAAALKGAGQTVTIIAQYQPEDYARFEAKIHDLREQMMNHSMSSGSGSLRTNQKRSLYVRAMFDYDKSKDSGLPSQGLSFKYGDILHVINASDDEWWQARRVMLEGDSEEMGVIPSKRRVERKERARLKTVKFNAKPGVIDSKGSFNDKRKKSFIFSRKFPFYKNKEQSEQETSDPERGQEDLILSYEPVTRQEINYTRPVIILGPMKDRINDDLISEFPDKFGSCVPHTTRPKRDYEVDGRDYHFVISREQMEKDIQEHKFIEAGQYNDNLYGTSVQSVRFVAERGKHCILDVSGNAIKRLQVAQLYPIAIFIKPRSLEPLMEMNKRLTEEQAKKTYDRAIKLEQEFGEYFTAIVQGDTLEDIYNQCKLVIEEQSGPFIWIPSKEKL
T1 sequence (O15018 whole entry, the tested form may be a part): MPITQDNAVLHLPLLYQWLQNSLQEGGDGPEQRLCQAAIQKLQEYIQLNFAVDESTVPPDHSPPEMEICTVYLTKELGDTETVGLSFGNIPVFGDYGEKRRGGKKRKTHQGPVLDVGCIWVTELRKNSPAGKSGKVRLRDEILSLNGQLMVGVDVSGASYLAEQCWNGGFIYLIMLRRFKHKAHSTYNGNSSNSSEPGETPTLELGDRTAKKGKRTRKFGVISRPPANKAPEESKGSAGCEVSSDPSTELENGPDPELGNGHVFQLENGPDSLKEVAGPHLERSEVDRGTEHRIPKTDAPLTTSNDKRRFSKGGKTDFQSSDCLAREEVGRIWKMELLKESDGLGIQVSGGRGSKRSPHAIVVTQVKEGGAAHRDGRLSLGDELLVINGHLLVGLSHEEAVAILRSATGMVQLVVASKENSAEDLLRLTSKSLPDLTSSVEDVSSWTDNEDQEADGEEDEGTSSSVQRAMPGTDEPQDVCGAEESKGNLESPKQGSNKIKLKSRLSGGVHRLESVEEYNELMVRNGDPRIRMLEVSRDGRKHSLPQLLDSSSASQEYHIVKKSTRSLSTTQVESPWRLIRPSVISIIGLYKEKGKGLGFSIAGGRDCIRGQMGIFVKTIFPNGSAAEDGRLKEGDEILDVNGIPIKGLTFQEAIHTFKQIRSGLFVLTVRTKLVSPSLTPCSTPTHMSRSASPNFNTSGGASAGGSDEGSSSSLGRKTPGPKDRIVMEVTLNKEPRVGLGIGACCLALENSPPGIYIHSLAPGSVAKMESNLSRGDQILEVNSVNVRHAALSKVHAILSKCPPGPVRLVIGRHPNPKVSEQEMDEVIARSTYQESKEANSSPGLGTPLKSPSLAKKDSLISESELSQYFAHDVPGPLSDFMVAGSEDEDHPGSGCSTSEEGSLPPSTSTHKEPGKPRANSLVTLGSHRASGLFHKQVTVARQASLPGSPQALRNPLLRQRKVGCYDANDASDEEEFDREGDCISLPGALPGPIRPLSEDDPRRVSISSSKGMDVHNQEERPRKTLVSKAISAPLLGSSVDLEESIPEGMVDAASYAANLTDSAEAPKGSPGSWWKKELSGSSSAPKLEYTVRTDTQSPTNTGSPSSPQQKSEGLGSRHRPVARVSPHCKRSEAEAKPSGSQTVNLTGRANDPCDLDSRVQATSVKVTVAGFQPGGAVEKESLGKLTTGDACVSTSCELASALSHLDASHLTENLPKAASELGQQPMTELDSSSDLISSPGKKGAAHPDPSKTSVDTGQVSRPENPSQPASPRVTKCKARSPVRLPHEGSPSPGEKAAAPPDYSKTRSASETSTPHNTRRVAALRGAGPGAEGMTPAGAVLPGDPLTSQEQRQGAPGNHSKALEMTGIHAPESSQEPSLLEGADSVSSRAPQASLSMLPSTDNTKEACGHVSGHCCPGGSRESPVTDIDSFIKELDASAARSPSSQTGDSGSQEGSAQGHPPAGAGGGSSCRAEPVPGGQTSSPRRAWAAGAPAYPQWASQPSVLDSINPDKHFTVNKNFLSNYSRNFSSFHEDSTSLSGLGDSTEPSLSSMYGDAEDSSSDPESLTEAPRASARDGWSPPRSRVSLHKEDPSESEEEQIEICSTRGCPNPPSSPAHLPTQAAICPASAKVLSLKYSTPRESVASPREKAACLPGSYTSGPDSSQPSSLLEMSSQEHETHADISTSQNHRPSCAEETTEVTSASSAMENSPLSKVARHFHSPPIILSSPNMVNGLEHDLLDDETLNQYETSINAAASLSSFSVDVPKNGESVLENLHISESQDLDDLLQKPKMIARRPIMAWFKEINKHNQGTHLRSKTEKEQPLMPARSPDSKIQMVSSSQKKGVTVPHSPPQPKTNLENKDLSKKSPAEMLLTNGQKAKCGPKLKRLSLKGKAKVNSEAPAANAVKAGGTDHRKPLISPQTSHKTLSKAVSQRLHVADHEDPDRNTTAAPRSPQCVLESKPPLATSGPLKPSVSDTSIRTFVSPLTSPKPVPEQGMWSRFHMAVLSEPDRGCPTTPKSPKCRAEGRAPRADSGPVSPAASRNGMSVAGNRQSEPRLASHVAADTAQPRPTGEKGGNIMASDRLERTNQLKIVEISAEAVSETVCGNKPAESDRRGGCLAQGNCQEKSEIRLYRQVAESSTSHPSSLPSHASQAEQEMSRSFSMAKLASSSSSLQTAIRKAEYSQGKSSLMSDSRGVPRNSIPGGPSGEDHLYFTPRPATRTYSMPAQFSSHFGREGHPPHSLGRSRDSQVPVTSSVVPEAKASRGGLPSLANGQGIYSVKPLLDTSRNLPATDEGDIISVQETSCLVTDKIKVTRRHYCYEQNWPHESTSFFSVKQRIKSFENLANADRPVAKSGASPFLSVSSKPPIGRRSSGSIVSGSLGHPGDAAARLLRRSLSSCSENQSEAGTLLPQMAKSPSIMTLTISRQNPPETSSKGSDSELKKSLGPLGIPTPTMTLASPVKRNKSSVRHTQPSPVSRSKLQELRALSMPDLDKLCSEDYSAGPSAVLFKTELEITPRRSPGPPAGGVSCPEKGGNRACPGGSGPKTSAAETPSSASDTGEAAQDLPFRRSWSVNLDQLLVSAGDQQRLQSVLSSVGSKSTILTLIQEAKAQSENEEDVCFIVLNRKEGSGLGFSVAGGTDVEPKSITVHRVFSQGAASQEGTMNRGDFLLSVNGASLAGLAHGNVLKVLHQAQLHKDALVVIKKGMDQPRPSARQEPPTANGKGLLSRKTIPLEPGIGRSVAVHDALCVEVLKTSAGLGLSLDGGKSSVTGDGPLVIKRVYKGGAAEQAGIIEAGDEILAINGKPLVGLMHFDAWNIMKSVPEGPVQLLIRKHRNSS

Take `CSCC[C@H](NC(=O)[C@H](C)NC(=O)[C@H](CCCNC(=N)N)NC(=O)CNC(=O)[C@@H](NC(=O)[C@H](Cc1c[nH]c2ccccc12)NC(=O)[C@H](CCCNC(=N)N)NC(=O)CNC(=O)CCCC[C@@H]1SC[C@@H]2NC(=O)N[C@@H]21)[C@@H](C)O)C(=O)N[C@@H](CO)C(=O)N[C@@H](C)C(=O)N[C@@H](Cc1c[nH]c2ccccc12)C(=O)N[C@@H](CCCCN)C(=O)N1CCC[C@H]1C(=O)N[C@H](C(=O)N[C@@H](CCCNC(=N)N)C(=O)N[C@@H](CCCNC(=N)N)C(=O)N[C@@H](CCC(=O)O)C(=O)N[C@H](C(=O)N[C@@H](CCC(=O)O)C(=O)N[C@H](C(=O)O)C(C)C)[C@@H](C)O)[C@@H](C)O` [HPV E6 #35 (modified)] (Biotin-GRWTGRAMSAWKPTRRETEV-OH; C-terminus assumed): the Classification in experiment [1] is 1 (A450 nm 0-1); in experiment [2] (PDZ Mint 1, PDZ Domain 1, 2), 1 (A450 nm 0-1); in experiment [2] (PDZ Mint 1, PDZ Domain 2), 2 (A450 nm 1-2); in experiment [3] (PDZ DLG2, PDZ Domain 1), 5 (A450 nm of 4 more than 2× repeated); in experiment [3] (PDZ DLG2, PDZ Domain 2) it was 5 (A450 nm of 4 more than 2× repeated). Also, in experiment [4], the Kd turned out to be 350 nM.
